How the values were obtained:
ER [1] = target: T1, ER (Homo sapiens, UniProt P03372); assay: In-cell Western (ICW) ER degradation assay in T47D cells; type: cell-based; conditions: for Dmax: T47D, read-out: ER T47D ICW Dmax (%)
T1 construct: endogenous in cells; probably T47D or MCF-7
T1 sequence (P03372 1-595): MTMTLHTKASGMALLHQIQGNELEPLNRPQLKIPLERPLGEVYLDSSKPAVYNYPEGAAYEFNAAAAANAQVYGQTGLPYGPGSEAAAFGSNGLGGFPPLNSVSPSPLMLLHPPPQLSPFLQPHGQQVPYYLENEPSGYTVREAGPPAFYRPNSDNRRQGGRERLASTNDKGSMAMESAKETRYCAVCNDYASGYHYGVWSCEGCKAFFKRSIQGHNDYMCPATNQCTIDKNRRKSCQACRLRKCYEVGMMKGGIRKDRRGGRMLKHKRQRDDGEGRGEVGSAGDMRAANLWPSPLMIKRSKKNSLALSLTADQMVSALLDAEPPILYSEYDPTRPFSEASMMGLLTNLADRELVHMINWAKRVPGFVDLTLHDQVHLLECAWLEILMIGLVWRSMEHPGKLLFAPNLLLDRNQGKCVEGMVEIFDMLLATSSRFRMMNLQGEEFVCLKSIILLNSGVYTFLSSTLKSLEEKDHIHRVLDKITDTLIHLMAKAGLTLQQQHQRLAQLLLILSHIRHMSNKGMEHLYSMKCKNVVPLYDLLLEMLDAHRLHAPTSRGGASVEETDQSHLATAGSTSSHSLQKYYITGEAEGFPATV

ERα_LBD (GST) = target: T2, ERα_LBD (GST) (Homo sapiens, UniProt P03372); assay: IC50 measurements for binding to ERα_LBD (GST), LanthaScreen TR-FRET ERα competitive binding assay; conditions: Fluormone ES2 Green tracer, 60 min, read-out: ERα HTRF IC50
T2 construct: ERα_LBD (GST) protein: 4 nM; purchased ThermoFisher A15887
T2 sequence (P03372 311-547 limits assumed): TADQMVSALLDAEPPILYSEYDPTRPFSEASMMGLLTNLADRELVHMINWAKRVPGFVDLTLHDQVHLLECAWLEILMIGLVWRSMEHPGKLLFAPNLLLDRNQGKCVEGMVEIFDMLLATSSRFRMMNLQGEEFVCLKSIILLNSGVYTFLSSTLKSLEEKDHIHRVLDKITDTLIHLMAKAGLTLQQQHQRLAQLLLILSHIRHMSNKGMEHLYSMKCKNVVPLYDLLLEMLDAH
Description: In vitro Assay: IC50 Measurements for binding to ERα_LBD (GST)·
Final assay conditions: • 1. ERα_LBD (GST) protein: 4 nM • 2. Tb Anti-GST: 2 nM • 3. Fluormone ES2 Green tracer: 3 nM • 4. Incubation time: 60 min • 5. DMSO: 1% • 6. Assay buffer: Adding 1M DTT to Nuclear receptor Buffer K for final 5 mM DTT. • 7. ZPE: 1% DMSO • 8. HPE: 1 μM ARV_471 • 9. LanthaScreen® TR-FRET ERα Competitive Binding Assay (ThermoFisher, #A^15887)
100× Compound preparation: • 1) Cherry pick 2 μL 10 mM compound stock to column 1 of a 384 intermediate plate • 2) Add 18 μL DMSO to column 1 to dilute compound to 1 mM. • 3) Transfer 10 μL 1 mM compound to column 1 of a LDV plate. • 2) Add 6 μl DMSO to column 2-10 of the LDV plate. • 3) Compounds undergo 3-fold serial dilution (3 μL+6 μL) in DMSO. • 4) Transfer 120 nL compound solution to assay plate.
Prepare complete nuclear receptor buffer K by adding 1 M DTT to nuclear receptor buffer K for a final concentration of 5 mM DTT. Complete nuclear receptor buffer K must be prepared fresh daily. Prepare 2× protein solution using complete nuclear receptor buffer K containing 8 nM ERα_LBD (GST) and 4 nM Tb Anti-GST. Then, prepare 2× Fluormone ES2 Green tracer (6 nM) using complete nuclear receptor buffer K. Add 6 μL 2× Fluormone ES2 green tracer into a compound plate (PerkinElmer 6008289) by dragonfly with one-tips-addition. Subsequently, add 6 μL 2× protein solution into the plate. Briefly and gently mix the 384-well plate on a plate shaker and incubate at room temperature protected from light for 60 min. The plate is sealed with a cover to minimize evaporation. Read the plate at wavelengths of 520 nm and 495 nm. Calculate the TR-FRET ratio by dividing the emission signal at 520 nm by the emission signal at 495 nm. Generate a binding curve by plotting the emission ratio vs. the log [ligand]. To determine the IC50 value, fit the data using XL-fit for a sigmoidal dose-response.

MCF-7 cells = assay: CellTiter-Glo (CTG) cell proliferation assay in MCF-7 cells; type: cell-based; conditions: Homo sapiens, MCF7, 144 h, Day 6
Text: (§1) CellTiter-Glo® (CTG) assays in MCF-7 and T47D cell lines.
(§2) In vitro Assay: MCF-7 and T47D CTG assay

ER [2] = target: T1, ER; assay: In-cell Western (ICW) ER degradation assay in MCF-7 cells; type: cell-based; conditions: for Dmax: MCF7, read-out: ER MCF7 ICW Dmax (%); for DC50: read-out: ER MCF7 ICW DC50
T47D cells = assay: CellTiter-Glo (CTG) cell proliferation assay in T47D cells; type: cell-based; conditions: Homo sapiens, 144 h, Day 6
Text: as §1, §2

CRBN/DDB1 = target: T3, CRBN/DDB1 (Homo sapiens, UniProt Q96SW2); type: binding; conditions: HTRF, Cy5-labeled Thalidomide probe
T3 construct: purchased Wuxi RP210521GA
T3 sequence (Q96SW2 whole entry): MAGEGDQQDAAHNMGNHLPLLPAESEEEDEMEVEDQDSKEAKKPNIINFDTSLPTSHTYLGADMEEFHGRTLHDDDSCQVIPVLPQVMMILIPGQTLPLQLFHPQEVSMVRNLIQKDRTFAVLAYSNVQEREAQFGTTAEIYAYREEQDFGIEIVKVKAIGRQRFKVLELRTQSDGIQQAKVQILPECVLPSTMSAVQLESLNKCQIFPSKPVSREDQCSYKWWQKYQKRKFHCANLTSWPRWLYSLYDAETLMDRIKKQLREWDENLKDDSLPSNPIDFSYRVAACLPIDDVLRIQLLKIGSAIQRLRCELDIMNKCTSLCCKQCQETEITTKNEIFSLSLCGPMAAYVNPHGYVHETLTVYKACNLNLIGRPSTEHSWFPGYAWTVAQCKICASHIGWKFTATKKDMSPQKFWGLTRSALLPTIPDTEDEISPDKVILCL
T3 sequence (Q16531 whole entry partner): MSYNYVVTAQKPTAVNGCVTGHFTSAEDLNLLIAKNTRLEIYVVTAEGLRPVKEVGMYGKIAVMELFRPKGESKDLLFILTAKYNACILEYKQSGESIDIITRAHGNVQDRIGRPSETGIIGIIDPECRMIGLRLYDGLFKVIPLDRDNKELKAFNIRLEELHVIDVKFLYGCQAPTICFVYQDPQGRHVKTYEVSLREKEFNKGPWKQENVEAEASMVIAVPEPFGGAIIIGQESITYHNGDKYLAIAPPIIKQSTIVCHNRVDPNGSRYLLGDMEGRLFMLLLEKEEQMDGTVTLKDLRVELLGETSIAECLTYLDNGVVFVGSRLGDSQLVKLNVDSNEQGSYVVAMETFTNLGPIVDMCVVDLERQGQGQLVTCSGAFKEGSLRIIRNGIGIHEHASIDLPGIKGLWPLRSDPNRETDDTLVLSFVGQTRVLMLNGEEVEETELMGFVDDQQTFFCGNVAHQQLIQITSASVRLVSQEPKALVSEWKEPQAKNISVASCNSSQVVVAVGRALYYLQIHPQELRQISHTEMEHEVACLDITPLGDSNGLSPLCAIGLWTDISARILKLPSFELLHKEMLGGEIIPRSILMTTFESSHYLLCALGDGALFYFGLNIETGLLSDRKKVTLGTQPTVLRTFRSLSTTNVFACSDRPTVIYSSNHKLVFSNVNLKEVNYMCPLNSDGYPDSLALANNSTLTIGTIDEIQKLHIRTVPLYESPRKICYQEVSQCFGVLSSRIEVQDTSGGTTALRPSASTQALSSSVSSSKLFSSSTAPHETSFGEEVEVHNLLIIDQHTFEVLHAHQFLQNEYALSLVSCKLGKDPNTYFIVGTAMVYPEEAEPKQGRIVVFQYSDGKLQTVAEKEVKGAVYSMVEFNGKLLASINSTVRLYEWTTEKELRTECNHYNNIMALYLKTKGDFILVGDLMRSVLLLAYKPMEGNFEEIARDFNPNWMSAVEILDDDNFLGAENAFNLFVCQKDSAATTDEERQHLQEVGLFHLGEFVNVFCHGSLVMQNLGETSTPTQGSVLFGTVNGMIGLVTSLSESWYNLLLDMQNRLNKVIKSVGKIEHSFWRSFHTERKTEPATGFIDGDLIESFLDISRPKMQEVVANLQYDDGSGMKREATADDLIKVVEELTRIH
Description: The binding potency was determined using HTRF assay technology (Perkin Elmer). Compounds were serially diluted in DMSO and 0.2 μL volume was transferred to white 384-well plate.

C[C@@H]1Cc2c(ccc3[nH]ncc23)C(c2ccc(N3CCC4(CC3)CC(CN3CCN5c6ccc7c(c6OC[C@H]5C3)CN([C@H]3CCC(=O)NC3=O)C7=O)C4)nc2)N1CC(F)(F)F (stereo in doubt) [Compound A26, (S)-3-((R)-7-((7-(5-((6R,8R)-8-methyl-7-(2,2,2-trifluoroethyl)-6,7,8,9-tetrahydro-3H-pyrazolo[4,3-f]isoquinolin-6-yl)pyridin-2-yl)-7-azaspiro[3.5]nonan-2-yl)methyl)-1-oxo-1,3,5,5a,6,7,8,9-octahydro-2H-pyrazino[1′,2′: 4,5][1,4]oxazino[2,3-e]isoindol-2-yl)piperidine-2,6-dione]
DC50 (ER [1]; T47D cells, 16 hrs): < 1 nM | Dmax (ER [1]; T47D cells, 16 hrs): > 75% | IC50 (ERα_LBD (GST)): < 10 nM | IC50 (MCF-7 cells): 10 to 50 nM | Dmax (ER [2]): > 75% | DC50 (ER [2]; MCF-7 cells, 16 hrs): < 1 nM | IC50 (T47D cells): 10 to 50 nM

C[C@@H]1Cc2c(ccc3[nH]ncc23)[C@@H](c2ccc(N3CC4(CCC(CN5CCN6c7ccc8c(c7OC[C@H]6C5)CN([C@H]5CCC(=O)NC5=O)C8=O)CC4)C3)nc2)N1CC(F)(F)F [Compound A17, (S)-3-((R)-7-((2-(5-((6S,8R)-8-methyl-7-(2,2,2-trifluoroethyl)-6,7,8,9-tetrahydro-3H-pyrazolo[4,3-f]isoquinolin-6-yl)pyridin-2-yl)-2-azaspiro[3.5]nonan-7-yl)methyl)-1-oxo-1,3,5,5a,6,7,8,9-octahydro-2H-pyrazino[1′,2′: 4,5][1,4]oxazino[2,3-e]isoindol-2-yl)piperidine-2,6-dione]
DC50 (ER [1]; T47D cells, 16 hrs): < 1 nM | Dmax (ER [1]; T47D cells, 16 hrs): > 75% | IC50 (ERα_LBD (GST)): < 10 nM | IC50 (MCF-7 cells): > 50 nM | Dmax (ER [2]): > 75% | DC50 (ER [2]; MCF-7 cells, 16 hrs): < 1 nM | IC50 (T47D cells): 10 to 50 nM

C[C@@H]1Cc2c(ccc3[nH]ncc23)[C@H](c2ccc(N3CCC4(CC3)CC(CN3CCN5c6ccc7c(c6OC[C@H]5C3)CN([C@H]3CCC(=O)NC3=O)C7=O)CO4)nc2)N1CC(F)(F)F (stereo partly drawn) [Compound A21, (3S)-3-((5aR)-7-((8-(5-((6R,8R)-8-methyl-7-(2,2,2-trifluoroethyl)-6,7,8,9-tetrahydro-3H-pyrazolo[4,3-f]isoquinolin-6-yl)pyridin-2-yl)-1-oxa-8-azaspiro[4.5]decan-3-yl)methyl)-1-oxo-1,3,5,5a,6,7,8,9-octahydro-2H-pyrazino[1′,2′: 4,5][1,4]oxazino[2,3-e]isoindol-2-yl)piperidine-2,6-dione]
DC50 (ER [1]; T47D cells, 16 hrs): < 1 nM | Dmax (ER [1]; T47D cells, 16 hrs): > 75% | IC50 (ERα_LBD (GST)): < 10 nM | IC50 (MCF-7 cells): < 10 nM | Dmax (ER [2]): > 75% | DC50 (ER [2]; MCF-7 cells, 16 hrs): < 1 nM | IC50 (T47D cells): 10 to 50 nM

COc1cc(N2CCC(CN3CCN4c5ccc6c(c5OC[C@H]4C3)CN(C3CCC(=O)NC3=O)C6=O)CC2)ccc1[C@@H]1c2ccc3[nH]ncc3c2C[C@@H](C)N1CC(F)F (stereo partly drawn) [Compound A6, 3-((R)-7-((1-(4-((6S,8R)-7-(2,2-difluoroethyl)-8-methyl-6,7,8,9-tetrahydro-3H-pyrazolo[4,3-f]isoquinolin-6-yl)-3-methoxyphenyl)piperidin-4-yl)methyl)-1-oxo-1,3,5,5a,6,7,8,9-octahydro-2H-pyrazino[1′,2′:4,5][1,4]oxazino[2,3-e]isoindol-2-yl)piperidine-2,6-dione]
DC50 (ER [1]; T47D cells, 16 hrs): < 1 nM | ER T47D ICW Dmax (%) (ER [1]; T47D cells, 16 hrs): B (“B”: >50% and <75%) | IC50 (MCF-7 cells): < 10 nM | ER MCF7 ICW Dmax (%) (ER [2]; MCF-7 cells, 16 hrs): B (“B”: >50% and <75%) | DC50 (ER [2]; MCF-7 cells, 16 hrs): < 1 nM | IC50 (T47D cells): < 10 nM | IC50 (CRBN/DDB1): 50 to 500 nM

C[C@@H]1Cc2c(ccc3[nH]ncc23)[C@@H](c2ccc(N3CCC(CN4CCN5c6cc7c(cc6OC[C@@H]5C4)C(=O)N([C@H]4CCC(=O)NC4=O)C7)CC3)nc2)N1CC(F)(F)F [Compound A24, (S)-3-((S)-3-((1-(5-((6S,8R)-8-methyl-7-(2,2,2-trifluoroethyl)-6,7,8,9-tetrahydro-3H-pyrazolo[4,3-f]isoquinolin-6-yl)pyridin-2-yl)piperidin-4-yl)methyl)-8-oxo-1,2,3,4,4a,5,8,10-octahydro-9H-pyrazino[1′,2′: 4,5][1,4]oxazino[2,3-f]isoindol-9-yl)piperidine-2,6-dione]
DC50 (ER [1]; T47D cells, 16 hrs): < 1 nM | Dmax (ER [1]): > 75% | IC50 (ERα_LBD (GST)): < 10 nM | IC50 (MCF-7 cells): > 50 nM | Dmax (ER [2]): 50 to 75% | DC50 (ER [2]; MCF-7 cells, 16 hrs): < 1 nM | IC50 (T47D cells): > 50 nM

C[C@@H]1Cc2c(ccc3[nH]ncc23)[C@H](c2ccc(N3CCC(CN4CCN5c6ccc7c(c6OC[C@H]5C4)CN([C@H]4CCC(=O)NC4=O)C7=O)CC3)nc2)N1CC(F)(F)F [Compound A19, (S)-3-((R)-7-((1-(5-((6R,8R)-8-methyl-7-(2,2,2-trifluoroethyl)-6,7,8,9-tetrahydro-3H-pyrazolo[4,3-f]isoquinolin-6-yl)pyridin-2-yl)piperidin-4-yl)methyl)-1-oxo-1,3,5,5a,6,7,8,9-octahydro-2H-pyrazino[1′,2′: 4,5][1,4]oxazino[2,3-e]isoindol-2-yl)piperidine-2,6-dione]
DC50 (ER [1]; T47D cells, 16 hrs): < 1 nM | Dmax (ER [1]; T47D cells, 16 hrs): 50 to 75% | IC50 (ERα_LBD (GST)): < 10 nM | IC50 (MCF-7 cells): < 10 nM | Dmax (ER [2]): 50 to 75% | DC50 (ER [2]; MCF-7 cells, 16 hrs): < 1 nM | IC50 (T47D cells): < 10 nM

From patent publication US20260256925A1, “INDAZOLE DERIVATIVES AS ESTROGEN RECEPTOR DEGRADERS” (REGENTS OF THE UNIVERSITY OF MICHIGAN, priority 2022, published 2026)
